From patent US9044491B2, “Method for improving blood flow using stilbenoid derivatives” (The Board of Trustees of the University of Arkansas, priority 2010, dated 2015) come the findings set out here.

The test system of data set [1] is cecal ligation and puncture model (CLP). Put plainly: RNS generation in renal tubules after CLP (rhodamine IVVM, anti-nitrotyrosine staining). As to conditions: for rhodamine fluorescence (RNS generation in renal tubules): 18 hours after CLP. The format is in vivo, mouse. The protocol:
The reactive nitrogen species peroxynitrite preferentially oxidizes DHR to fluorescent rhodamine that is visualized at 535 nm excitation and 590 nm emission. Still images exposed for 500 ms were captured from fields of view used to determine capillary perfusion. Fluorescence intensity was measured by ImageJ (National Institutes of Health, Bethesda, Md.) after first subtracting background fluorescence intensity. Representative images of fluorescence are shown in FIG. 10, panels (A)-(C), and the quantification of fluorescence is shown in FIG. 10 panel D. Data are expressed as arbitrary units/μg. CLP increased the generation of RNS in the renal tubules compared to Control (Sham). […] Antigens were unmasked using 10 mM citrate (pH 6.0) and 95° C. for 30 min. Gill's hematoxylin II was used as a counterstain. […] FIG. 12 (E)-(G) show nitrotyrosine staining. After CLP, nitrotyrosine was intense in renal tubules but not in glomeruli. Two doses of tRes blocked formation of nitrotyrosine adducts.

The subject of data set [2] is CLP mice. Put plainly: Survival study after CLP. The format is in vivo, mouse. As to conditions: 10 mg/kg at 6, 12, and 18 hours following CLP, monitored for 48 h.
The test system of data set [3] is CB1 receptors. The format is biochemical, mouse. As to conditions: 10 μM compound, 30 min at 30° C.
Data set [4] concerns CLP mice. Put plainly: Serum creatinine and blood urea nitrogen after CLP. The data set is classed as in vivo, mouse. As to the method:
Acute Kidney Injury (AKI) is accompanied by elevated blood urea nitrogen levels, elevated creatinine levels, and low blood pressure. Serum creatinine and blood urea nitrogen (BUN) were measured using the QuantiChrom® Creatinine Assay kit and Urea Assay Kit (BioAssay Systems, Hayward Calif.).

Data set [5] deals with CLP or Control (Sham) mice. Put plainly: Renal arterial blood flow by Doppler flow probe. The format is in vivo, mouse. The text has this: Under isoflurane anesthesia, the right kidney was exposed by flank incision and the renal artery and vein were carefully dissected from surrounding tissue with Dumont-5 forceps. The renal artery was isolated from the vein and a Transonic Systems (Ithaca, N.Y.) 0.5 PSL renal artery Doppler flow probe was positioned around the renal artery. The probe was calibrated in water using the zero and scale settings on the TS420 flowmeter (Transonic Systems). […] Body temperature was maintained at 36 to 37° C. with a heating lamp. Data were expressed in ml/min/g kidney weight.
Renal blood flow was measured essentially as described above in Example 10 following CPL surgery or control treatment (no surgery). CPL-treated mice were administered 10 mg/kg of resveratrol, 2.5 mg/kg of resveratrol-3-sulfate, or vehicle. […] In fact, resveratrol-3-sulfate produced the same degree of reversal at 25% of the dose of resveratrol.

Data set [6] addresses T1, human UGT1A10 (Homo sapiens, UniProt Q9HAW8).
T1 sequence (Q9HAW8 26-530): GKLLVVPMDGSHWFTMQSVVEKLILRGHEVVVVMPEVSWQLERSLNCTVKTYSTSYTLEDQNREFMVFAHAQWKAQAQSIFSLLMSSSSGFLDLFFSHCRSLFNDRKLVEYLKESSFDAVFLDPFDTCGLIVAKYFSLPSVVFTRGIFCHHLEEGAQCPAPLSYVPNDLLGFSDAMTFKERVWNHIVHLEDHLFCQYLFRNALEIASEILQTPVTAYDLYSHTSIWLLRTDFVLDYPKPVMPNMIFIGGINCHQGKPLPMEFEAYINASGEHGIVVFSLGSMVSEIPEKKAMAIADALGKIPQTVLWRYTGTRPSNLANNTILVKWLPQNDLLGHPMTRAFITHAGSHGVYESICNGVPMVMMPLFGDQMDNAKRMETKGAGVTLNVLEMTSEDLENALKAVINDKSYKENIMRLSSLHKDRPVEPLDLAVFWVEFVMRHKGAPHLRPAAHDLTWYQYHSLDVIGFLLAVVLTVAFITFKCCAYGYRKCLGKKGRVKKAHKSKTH
As to conditions: 250 μM.
Protocol: (§1) Eight human recombinant UGT1A isoforms (UGT1A1, 1A3, 1A4, 1A6, 1A7, 1A8, 1A9, and 1A10; 5 μg) expressed as His-tag proteins in baculovirus-infected Sf9 insect cells and human liver microsomes (from one donor; HL2; 50 μg) and human intestinal microsomes (from two donors; HI36 and HI41; 50 μg) were evaluated for their ability to glucuronidate these four compounds. The concentrations of the substrate and co-substrate (i.e., UDP-GlcUA) were 250 μM and 4 mM, respectively. Glucuronidation products were analyzed by HPLC and LCMS/MS.
(§2) The kinetic constants of the glucuronidation reactions using recombinant human UGT1A1 and UGT1A10 were determined by measuring the enzyme activity in the presence of increasing concentrations of substrate (see FIG. 2).

In data set [7] the target is T2, human UGT1A1 (Homo sapiens, UniProt P22309).
T2 sequence (P22309 26-533): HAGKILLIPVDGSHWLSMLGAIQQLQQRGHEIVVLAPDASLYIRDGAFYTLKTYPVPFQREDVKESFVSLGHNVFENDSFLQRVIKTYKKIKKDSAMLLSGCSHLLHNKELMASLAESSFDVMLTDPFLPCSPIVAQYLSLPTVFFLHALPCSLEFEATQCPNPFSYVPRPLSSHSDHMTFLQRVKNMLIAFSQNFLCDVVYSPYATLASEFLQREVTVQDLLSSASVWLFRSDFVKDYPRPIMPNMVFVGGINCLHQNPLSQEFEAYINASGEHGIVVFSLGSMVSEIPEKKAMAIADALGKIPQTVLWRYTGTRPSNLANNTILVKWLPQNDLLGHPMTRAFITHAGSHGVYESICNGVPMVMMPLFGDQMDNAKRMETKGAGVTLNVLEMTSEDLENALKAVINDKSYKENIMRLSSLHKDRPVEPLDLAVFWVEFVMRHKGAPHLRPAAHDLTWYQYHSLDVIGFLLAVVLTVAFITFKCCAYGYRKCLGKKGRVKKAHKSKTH
To be noted: 250 μM.
Protocol: as §1, §2

The subject of data set [8] is CLP mice. As to the kind of experiment: Systemic serum nitric oxide levels after CLP. The format is in vivo, mouse. As to conditions: CLP mice at 18 hours, two doses. The protocol:
Serum nitrate and […] were determined using the Total Nitric Oxide Assay Kit (Assay Designs, Ann Arbor, Mich.) as directed by the manufacturer. Data were expressed as serum nitrate+nitrate concentration in […].

In data set [9] the test system is cecal ligation and puncture model (CLP) of sepsis-induced renal injury. As to the kind of experiment: Murine CLP model of sepsis, tRes 30 mg/kg (Example 5). The data set is classed as in vivo, mouse. As to conditions: 30 mg/kg i.p. 30 min prior to and 6 hr post CLP; 18 hr post CLP. An excerpt:
Control (sham) mice underwent surgery but not CLP. Each treatment group contained 4-5 mice. Renal ONOO^− generation (rhodamine fluorescence) and renal peritubular capillary perfusion were quantified using intravital video microscopy (IVVM) on anesthetized mice in each of the treatment groups.

Where [10] appears, read: 10 mg/kg administered 6 hours after CLP surgery, single dose.

Structures are written as SMILES.

`Oc1ccc(/C=C/c2cc(O)cc(O)c2)cc1` [tRes, trans-resveratrol]: the “rhodamine fluorescence (RNS generation in renal tubules)” value was “completely blocked” in [1] (second dose at 12 hours) and “partially, but significantly reduced” in data set [1] (single dose at 6 hours). Moreover, the “formation of nitrotyrosine adducts” value in data set [1] (CLP, two doses) is “blocked”. For the same compound, the “survival in CLP mice” value in data set [2] is “significantly improve survival”. In data set [3], the “basal G-protein activity” value was “little effect”. In addition, the BUN levels entry is given as “not” in [4] (setting [10]) and “significant reduction” in data set [4] (additional dose given at 12 h). In addition, the serum creatinine levels entry in [4] (setting [10]) is on record as “significantly reduced”; in data set [4] (additional dose given at 12 h), “significant reduction”. In addition, the “Renal Arterial Blood Flow (RBF)” value in data set [5] (CLP mice at 6 hours, 10 mg/kg via the penile vein at 5.5 hours) is 2.6 ± 0.6 mL/min/g; in [5] (Control (Sham) mice, 10 mg/kg) it was “without effect”. Moreover, in data set [5] (CPL-treated mice, 10 mg/kg (Example 15)), the renal blood flow result is “increased blood flow”. Besides, the “glucuronide formation by UGT1A10” value in data set [6] is “glucuronidated to 3-O— and 4′-O-Glucs”. Also, the “glucuronide formation by UGT1A1” value in [7] is “glucuronidated to 3-O— and 4′-O-Glucs”. In data set [8], the “serum nitrate+nitrate concentration” value was “did not affect”. Also, the “RNS generation in the kidney” value in data set [9] was “blocked”. Further, the renal capillary perfusion entry in [9] is reported as “preserved”.
